test system: HCV replicon cells; assay: Cell-based HCV replicon assay (replicon RNA level by real time PCR, Taqman); details: Hepatitis C virus, 72 h, HCV replicon cells, replicon RNA level by real time PCR (Taqman), day 3; calculated EC90; read-out: EC90 (μM) range
In short: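 Readout: ΔCT between NS5B replicon RNA and GAPDH by real-time RT-PCR in lysates harvested on day 3, fitted sigmoidally; EC50 at ΔCT=1, EC90 at ΔCT=3.2. Compounds tested at ten 2-fold dilutions from 25 μM to 1 μM start, 10% FBS, 0.5% DMSO.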

`Cc1ccc([C@H](Nc2nc(C)c(-c3nc4ccccc4s3)c(N[C@@H]3C[C@H](CO)[C@@H](O)[C@H]3O)n2)C(F)(F)F)cc1` [Example 2005] and `Cc1nc(N[C@@H](C2CC2)C(F)(F)F)nc(N[C@@H]2C[C@H](CO)[C@@H](O)[C@H]2O)c1-c1nc2ccccc2s1` [Example 2013] fall in the same range of EC90: 0.5 to 5 µM for the first, 0.5 to 5 µM for the second.

`Cc1nc(NCC(F)(F)F)nc(N[C@@H]2C[C@H](CO)[C@H]3OC(C)(C)O[C@H]32)c1-c1nc2ncccc2o1` [Example 2006] and `Cc1nc(NCC(F)(F)F)nc(N[C@@H]2C[C@H](CO)[C@@H](O)[C@H]2O)c1-c1nc2ncccc2o1` [Example 2008] fall in the same range of EC90: 0.5 to 5 µM for the first, 0.5 to 5 µM for the second.

`Cc1ccc(CNc2nc(C)c(-c3nc4ncccc4o3)c(N[C@@H]3C[C@H](CO)[C@@H](O)[C@H]3O)n2)cc1` [Example 2007] and `Cc1nc(NCCc2ccc(C(C)(C)C)cc2)nc(N[C@@H]2C[C@H](CO)[C@@H](O)[C@H]2O)c1-c1nc2cnccc2s1` [Example 2012] cannot be ordered by EC90: less than 0.5 µM for the first, less than 0.5 µM for the second.

`COc1cc(CCNc2nc(C)c(-c3nc4cnccc4s3)c(N[C@@H]3C[C@H](CO)[C@H]4OC(C)(C)O[C@H]43)n2)cc(OC)c1` [Example 2009] and `COc1cc(CCNc2nc(C)c(-c3nc4cnccc4s3)c(N[C@@H]3C[C@H](CO)[C@@H](O)[C@H]3O)n2)cc(OC)c1` [Example 2010] cannot be ordered by EC90: less than 0.5 µM for the first, less than 0.5 µM for the second.

`Cc1nc(NCCc2ccc(C(C)(C)C)cc2)nc(N[C@@H]2C[C@H](CO)[C@H]3OC(C)(C)O[C@H]32)c1-c1nc2cnccc2s1` [Example 2011] gave an EC90 greater than 5 µM.
